This is an account of results in patent US9862985B2, “Identification and susceptibility of microorganisms by species and strain” (SPECIFIC TECHNOLOGIES LLC, priority 2012, dated 2018).

Molecules are shown by their SMILES.

Assay [1] concerns K. pneumoniae IS-133. Particulars: cited from earlier work.
For assay [2], the system named is K. pneumoniae IS-020. Particulars: cited from earlier work.
Assay [3] has as its system K. pneumoniae IS-007. In words: Colorimetric sensor array antibiotic susceptibility test on solid growth media. In kind it is cell-based. Conditions: vs control without antibiotic. From the text: (§1) To detect a microorganism by species and strain, a sample including the microorganism is placed in a container including culture medium and a colorimetric array, and the temporal response of the sensors to the metabolic products of the microorganism is monitored. Susceptibility can be assessed by inoculating a growth medium including a substance (e.g., an antibiotic) with a microorganism and monitoring the temporal response of the sensors while also monitoring the response of a control (e.g., no antibiotic).
FIG. 8 depicts container 800 configured for use to assess susceptibility of microorganisms. Container 800 includes base 802 and lid 804, with plates 806 positioned in base 802 opposite colorimetric sensor arrays 808 on lid 804. Microorganisms may be placed in contact with growth medium (e.g., a solid growth medium) in plates 806. A substance (e.g., a drug such as an antibiotic) may be added to the growth medium. In one example, rows and columns of plates 802 in container 800 may be used for different microorganisms, different substances (e.g., drugs effective to kill the microorganisms), or different concentrations of substances. After samples are loaded on plates 802, lid 804 is positioned over base 802, such that each colorimetric sensor array 808 is proximate a plate 806. Susceptibility is assessed via temporal response of the sensors in colorimetric sensor arrays. […]

The test system of assay [4] is K. pneumoniae IS-007. Conditions: cited from earlier work.
In assay [5] the test system is S. aureus IS-120. In words: Colorimetric sensor array antibiotic susceptibility test on solid growth media. It counts as cell-based.
From the text: as §1
(§2) FIG. 8 depicts container 800 configured for use to assess susceptibility of microorganisms. Container 800 includes base 802 and lid 804, with plates 806 positioned in base 802 opposite colorimetric sensor arrays 808 on lid 804. Microorganisms may be placed in contact with growth medium (e.g., a solid growth medium) in plates 806. A substance (e.g., a drug such as an antibiotic) may be added to the growth medium. In one example, rows and columns of plates 802 in container 800 may be used for different microorganisms, different substances (e.g., drugs effective to kill the microorganisms), or different concentrations of substances. After samples are loaded on plates 802, lid 804 is positioned over base 802, such that each colorimetric sensor array 808 is proximate a plate 806. Susceptibility is assessed via temporal response of the sensors in colorimetric sensor arrays. Container 800 can be positioned in an apparatus (e.g., apparatus 700) for automated assessment of susceptibility.
(§3) Susceptibility is indicated by a lack of metabolic products compared to controls (no antibiotic).
(§4) In another susceptibility test, three strains of S. aureus were inoculated onto the solid growth media. […] S. aureus IS-124 was susceptible to both antibiotics in agreement with known susceptibility information that this strain is susceptible to Oxacillin and Vancomycin.

The test system of assay [6] is S. aureus IS-123. The assay is described as above. In kind it is cell-based.
From the text: as §1, §2, §3, §4

Assay [7] concerns S. aureus IS-120. Conditions: cited from earlier work.
Assay [8] deals with S. aureus IS-123. Particulars: cited from earlier work.
In assay [9] the test system is S. aureus IS-124. Conditions: concentration not given; cited from earlier work.
Setting [10] is: antibiotic at 2 ug/ml in solid growth media.
The mark [11] stands for this setting: antibiotic at 1-2 ug/ml in solid growth media.

`CO/N=C(\C(=O)N[C@@H]1C(=O)N2C(C(=O)[O-])=C(C[N+]3(C)CCCC3)CS[C@H]12)c1csc(N)n1` [Cefepime]: in assay [1], the “concentration below which the strain is resistant (known)” value was “below 64 ug/ml”. For the same compound, the “concentration at which the strain is susceptible (known susceptibility information)” value in [2] is below 1 µg/mL. For the same compound, the “susceptibility or resistance of the strain to the antibiotic” value (from here on “susceptibility or resistance”) in [3] (antibiotic at 8 ug/ml in solid growth media) is “resistance”. In assay [4], the “concentration at which the strain is susceptible (known susceptibility information)” value is below 0.25 µg/mL and the “concentration below which the strain is resistant (known susceptibility information)” value is “below 64 ug/ml”.

For `C[C@@H](O)[C@H]1C(=O)N2C(C(=O)O)=C(S[C@@H]3CN[C@H](C(=O)N(C)C)C3)[C@H](C)[C@H]12` [Meropenem], the “concentration below which the strain is resistant (known)” value in [1] is on record as “below 16 ug/ml”. In addition, the “concentration at which the strain is susceptible (known susceptibility information)” value in assay [2] is below 0.25 µg/mL. Moreover, the “susceptibility or resistance” value in assay [3] (antibiotic at 1 ug/ml in solid growth media) is given as “susceptibility”.

`Cc1onc(-c2ccccc2)c1C(=O)N[C@@H]1C(=O)N2[C@@H]1SC(C)(C)[C@@H]2C(=O)O` [Oxacillin]: the “susceptibility or resistance” value in assay [5] (setting [10]) and in [6] (setting [10]) was “resistance” throughout. The “concentration below which the strain is resistant (known susceptibility information)” value in [7] and in [8] was “below 4 ug/ml” each time. The “known susceptibility of the strain to the antibiotic” value in assay [9] is “susceptible”.

On to `CN[C@H](CC(C)C)C(=O)N[C@H]1C(=O)N[C@@H](CC(N)=O)C(=O)N[C@H]2C(=O)N[C@H]3C(=O)N[C@H](C(=O)N[C@H](C(=O)O)c4cc(O)cc(O)c4-c4cc3ccc4O)[C@H](O)c3ccc(c(Cl)c3)Oc3cc2cc(c3O[C@@H]2O[C@H](CO)[C@@H](O)[C@H](O)[C@H]2O[C@H]2C[C@](C)(N)[C@H](O)[C@H](C)O2)Oc2ccc(cc2Cl)[C@H]1O` [Vancomycin], for which the “susceptibility or resistance” value in assay [5] (setting [11]) and in assay [6] (setting [11]) was “susceptibility” each time. The “known susceptibility of the strain to the antibiotic” value in assay [7] (concentration not given), in assay [8] (concentration not given) and in assay [9] was “susceptible” in each case.
